Test results as given in patent publication US8946209B2, “Compositions and methods for treating and preventing urolithiasis and conditions associated therewith” (OptMed, Inc., priority 2009, dated 2015).

How the values were obtained:
[1] = system: human ureteral smooth muscle; assay: Relaxant effect of diazepam on EFS-induced contraction of human ureteral muscle rings (Example 3); type: cell-based
Experimental: (§1) Ureteral muscle rings obtained from women undergoing nephrectomy or ureteral muscle strips harvested from adult male Wistar rats (n=8 samples of each) were mounted in 5 mL organ baths containing Krebs-Henseleit solution. The organ baths were kept at 37±1° C. and continuously aerated with 95% O2-5% CO2. After 60 minutes of equilibration, smooth muscle samples were exposed to 80 or 30 mM KCl (human and rat, respectively) to assess their viability. After washout and 30 additional minutes of equilibration, electrical field stimulation (EFS) was started. […] Time-matched controls were obtained exposing tissues to a solution of drug vehicle without diazepam (DMSO in distilled water). At the end of the experiment, the maximal relaxant capacities of each tissue were determined by exposure to 10 μM forskolin.

[2] = system: rat ureteral smooth muscle; assay: Relaxant effect of diazepam on EFS-induced contraction of rat ureteral muscle strips (Example 3); type: cell-based, Wistar rats
Experimental: as §1

SMILES: CN1C(=O)CN=C(c2ccccc2)c2cc(Cl)ccc21 [diazepam, 7-chloro-1,3-dihydro-1-methyl-5-phenyl-2H-1,4-benzodiazepin-2-one]
- Emax ([1]; Homo sapiens, read-out: maximal relaxant effect (Emax), of the basal response to EFS): 98.4 ± 0.2%
- IC50 ([1]; Homo sapiens, read-out: pIC50 for inhibition of EFS-induced contraction (converted)): 4.47 µM
- restoration of baseline EFS-induced contractility after washout ([1]; human ureter, following total inhibition of tissue contraction by diazepam): restored after 3 washouts
- Emax ([2]; read-out: maximal relaxant effect (Emax), of the basal response to EFS): 67.4 ± 5%
- IC50 ([2]; read-out: pIC50 for inhibition of EFS-induced contraction (converted)): 1.12 µM
